Legend:
[1] = system: Phaedon cochleariae (Mustard Beetle); test: Test 3 a): leaf disc spray test, Phaedon cochleariae larvae; format: in vivo; conditions: Phaedon cochleariae, foliar; for pest or weed control at 10 ppm: read-out: Phaedon % m 10 ppm; for mortality at 5 ppm: read-out: mortality of larvae of Phaedon cochleariae
Source text: (§1) One or more dilutions of the compounds to be tested were made in 50% aqueous acetone.
(§2) a) Test species: Plutella xylostella (Diamond-back Moth) and Phaedon cochleariae (Mustard Beetle)
(§3) Turnip leaf discs were set in agar in petri-dishes and infected with 10 larvae (2nd instar Plutella or 3rd instar Phaedon). Four replicate dishes were assigned to each treatment and were sprayed under a Potter Tower with the appropriate test dilution. Four or five days after treatment the dishes were removed from the constant temperature (25° C.) room in which they had been held and the mean percentage mortalities of larvae were determined.

[2] = system: Plutella xylostella (Diamond-back Moth); test: whole plant or invertebrate; format: in vivo; conditions: foliar; for mortality at 500 ppm: read-out: mortality of larvae of Plutella xylostella
Source text: as §1, §2, §3

[3] = system: Megoura viciae (Vetch Aphid); test: Test 3 b): spray of infested tic bean plants, Megoura viciae; format: in vivo; conditions: for Megoura score/12 50 ppm: Tables 1 and 3, sum of scores 0-3 of 4 replicates; for mortality at 50 ppm: Megoura viciae, read-out: mortality of Megoura viciae; for score from 4 replicates, Megoura viciae: Test 3 method (b), application of 50 ppm, score 0-3 per replicate, maximum 12
Description: as §1
b) Megoura viciae (Vetch Aphid)
Potted tic bean plants previously infected with mixed stages of Megoura were sprayed to run-off using a laboratory turntable sprayer. Treated plants were held in a greenhouse for 2 days and were assessed for aphid mortality using a scoring system, judging the response in comparison with plants treated with 50% aqueous acetone alone, as controls.

N#Cc1nn(-c2c(Cl)cc(C(F)(F)F)cc2Cl)c(N)c1SC(F)(F)C(F)Cl (centres unmarked)
melting point: 116 to 118 °C

N#Cc1nn(-c2c(Cl)cc(C(F)(F)F)cc2Cl)c(Br)c1[N+](=O)[O-]
melting point: 147 to 150 °C

N#Cc1nn(-c2c(Cl)cc(C(F)(F)F)cc2Cl)c(NC(=O)C(Cl)Cl)c1C#N
melting point: 186 to 187 °C

CCC(=O)Nc1c(C#N)c(C#N)nn1-c1c(Cl)cc(C(F)(F)F)cc1Cl
melting point: 188 to 189 °C

N#Cc1nn(-c2c(Cl)c(F)c(C(F)(F)F)c(F)c2Cl)c(N)c1C#N
melting point: 245 to 247 °C

CNc1c(C#N)c(C#N)nn1-c1c(Cl)cc(C(F)(F)F)cc1Cl
melting point: 165 to 166 °C

CCNc1c(C#N)c(C#N)nn1-c1c(Cl)cc(C(F)(F)F)cc1Cl
melting point: 245 to 246 °C

CN(C)c1c([S+]([O-])C(F)(F)F)c(C#N)nn1-c1c(Cl)cc(C(F)(F)F)cc1Cl (centres unmarked)
melting point: 154 to 161 °C

N#Cc1nn(-c2c(Cl)cc(C(F)(F)F)cc2Cl)c(Br)c1[S+]([O-])C(F)(F)F (centres unmarked)
melting point: 147 to 148 °C

N#Cc1c(Cl)nn(-c2c(Cl)cc(C(F)(F)F)cc2Cl)c1N [Compound 114, 5-Amino-3-chloro-4-cyano-1-(2,6-dichloro-4-trifluoromethylphenyl)pyrazole]
pest or weed control at 10 ppm [1]: 100%
mortality at 500 ppm [2]: 100%
Megoura score/12 50 ppm [3]: 9

N#Cc1c(Br)nn(-c2c(Cl)cc(C(F)(F)F)cc2Cl)c1N [Compound 115, 5-Amino-3-bromo-4-cyano-1-(2,6-dichloro-4-trifluoromethylphenyl)pyrazole]
pest or weed control at 10 ppm [1]: 100%
mortality at 500 ppm [2]: 100%
Megoura score/12 50 ppm [3]: 10

COC=Nc1c(C#N)c(C)nn1-c1c(Cl)cc(C(F)(F)F)cc1Cl [Compound 118, 4-Cyano-1-(2,6-dichloro-4-trifluoromethylphenyl)-3-methyl-5-methoxymethyleneaminopyrazole]
pest or weed control at 10 ppm [1]: 45%
pest or weed control at 500 ppm ([2]; read-out: Plutella % m 500 ppm): 73%
Megoura score/12 50 ppm [3]: 10

CCCOC=Nc1c(C#N)c(C)nn1-c1c(Cl)cc(C(F)(F)F)cc1Cl [Compound 119, 4-Cyano-1-(2,6-dichloro-4-trifluoromethylphenyl)-3-methyl-5-propoxymethyleneaminopyrazole]
melting point: 77 to 79 °C

N#Cc1nn(-c2c(F)c(F)c(C(F)(F)F)c(F)c2F)c(N)c1C#N [Compound 126, 5-Amino-3,4-dicyano-1-(2,3,5,6-tetrafluoro-4-trifluoromethylphenyl)pyrazole]
melting point: 262 to 263 °C

N#Cc1c(C(F)(F)C(F)(F)F)nn(-c2c(Cl)cc(C(F)(F)F)cc2Cl)c1N [Compound 127, 5-Amino-4-cyano-1-(2,6-dichloro-4-trifluoromethylphenyl)-3-pentafluoroethylpyrazole]
pest or weed control at 10 ppm [1]: 100%
mortality at 100 ppm ([2]; read-out: Plutella % mortality at 100 ppm): 100%
Megoura score/12 50 ppm [3]: 10

N#Cc1c(C(F)F)nn(-c2c(Cl)cc(C(F)(F)F)cc2Cl)c1N [Compound 129, 5-Amino-1-(2,6-dichloro-4-trifluoromethylphenyl)-4-cyano-3-difluoromethylpyrazole]
pest or weed control at 10 ppm [1]: 100%
mortality at 500 ppm [2]: 100%
mortality at 50 ppm [3]: 100%
score from 4 replicates, Megoura viciae [3]: 12

CCOC=Nc1c(C#N)c(C(F)(F)F)nn1-c1c(Cl)cc(C(F)(F)F)cc1Cl [Compound 135, 4-Cyano-1-(2,6-dichloro-4-trifluoromethylphenyl)-5-ethoxymethyleneamino-3-trifluoromethylpyrazole]
melting point: 160 to 162 °C

N#Cc1c(CF)nn(-c2c(Cl)cc(C(F)(F)F)cc2Cl)c1N [Compound 142, 5-Amino-4-cyano-1-(2,6-dichloro-4-trifluoromethylphenyl)-3-fluoromethylpyrazole]
melting point: 139 to 141 °C

N#Cc1c(C(F)(F)F)nn(-c2c(Cl)cc(OC(F)(F)F)cc2Cl)c1N [Compound 144, 5-Amino-4-cyano-1-(2,6-dichloro-4-trifluoromethoxyphenyl)-3-trifluoromethylpyrazole]
mortality at 5 ppm [1]: 100%
mortality at 500 ppm [2]: 100%
mortality at 50 ppm [3]: 100%
score from 4 replicates, Megoura viciae [3]: 12

N#Cc1cn(-c2c(Cl)cc(C(F)(F)F)cc2Cl)nc1C(F)(F)F [Compound 150, 4-Cyano-1-(2,6-dichloro-4-trifluoromethylphenyl)-3-trifluoromethylpyrazole]
pest or weed control at 10 ppm [1]: 100%
mortality at 500 ppm [2]: 100%
Megoura score/12 50 ppm [3]: 10

N#Cc1c(C(F)(F)F)nn(-c2c(Cl)cc(C(F)(F)F)cc2Cl)c1I [Compound 151, 4-Cyano-1-(2,6-dichloro-4-trifluoromethylphenyl)-5-iodo-3-trifluoromethylpyrazole]
pest or weed control at 10 ppm [1]: 100%
mortality at 500 ppm [2]: 100%
Megoura score/12 50 ppm [3]: 11

N#Cc1nn(-c2c(F)c(F)c(C(F)(F)F)c(F)c2Cl)c(N)c1C#N [Compound 157, 5-Amino-1-(2-chloro-3,5,6-trifluoro-4-trifluoromethylphenyl)-3,4-dicyanopyrazole]
melting point: 242 to 243 °C

N#Cc1nn(-c2c(Cl)cc(OC(F)(F)F)cc2Cl)c(N)c1C#N [Compound 159, 5-Amino-1-(2,6-dichloro-4-trifluoromethoxyphenyl)-3,4-dicyanopyrazole]
melting point: 231 to 232 °C

CCOC(=O)c1c(C)nn(-c2c(Cl)cc(C(F)(F)F)cc2Cl)c1N [Compound 162, 5-Amino-1-(2,6-dichloro-4-trifluoromethylphenyl)-3-methyl-4-ethoxycarbonylpyrazole]
melting point: 115 to 118 °C

Cc1nn(-c2c(Cl)cc(OC(F)(F)F)cc2Cl)c(N)c1S(C)(=O)=O [Compound 163, 5-Amino-1-(2,6-dichloro-4-trifluoromethoxyphenyl)-4-methanesulphonyl-3-methylpyrazole]
melting point: 180 to 181 °C

N#Cc1c(C(F)(F)F)nn(-c2c(Cl)c(F)c(C(F)(F)F)c(F)c2Cl)c1N [Compound 167, 5-Amino-4-cyano-1-(2,6-dichloro-3,5-difluoro-4-trifluoromethylphenyl)-3-trifluoromethylpyrazole]
melting point: 176 to 177 °C

CCOC(C)=Nc1c(C#N)c(C)nn1-c1c(Cl)cc(C(F)(F)F)cc1Cl [Compound 168, 4-Cyano-1-(2,6-dichloro-4-trifluoromethylphenyl)-5-(1-ethoxyethylideneamino)-3-methylpyrazole]
melting point: 50 to 53 °C

Cc1nn(-c2c(Cl)cc(C(F)(F)F)cc2Cl)c(N2C(=O)CCC2=O)c1C#N [Compound 169, 4-Cyano-1-(2,6-dichloro-4-trifluoromethylphenyl)-3-methyl-5-succinimidopyrazole]
melting point: 202 to 204 °C

C[Si](C)(C)c1c([N+](=O)[O-])c(C(F)(F)F)nn1-c1c(Cl)cc(C(F)(F)F)cc1Cl [Compound 210, 1-(2,6-Dichloro-4-trifluoromethylphenyl)-4-nitro-3-trifluoromethyl-5-trimethylsilylpyrazole]
mortality at 5 ppm [1]: 100%
mortality at 500 ppm [2]: 100%
mortality at 50 ppm [3]: 100%
score from 4 replicates, Megoura viciae [3]: 12

CS(=O)(=O)c1c(C#N)nn(-c2c(Cl)cc(C(F)(F)F)cc2Cl)c1N [Compound 214, 5-Amino-3-cyano-1-(2,6-dichloro-4-trifluoromethylphenyl)-4-methanesulphonylpyrazole]
mortality at 5 ppm [1]: 100%
mortality at 500 ppm [2]: 100%
mortality at 50 ppm [3]: 100%
score from 4 replicates, Megoura viciae [3]: 12

CC[S+]([O-])c1c(C(F)(F)F)nn(-c2c(Cl)cc(C(F)(F)F)cc2Cl)c1N (centres unmarked) [Compound 217, 5-Amino-1-(2,6-dichloro-4-trifluoromethylphenyl)-4-ethylsulphinyl-3-trifluoromethylpyrazole]
mortality at 5 ppm [1]: 100%
mortality at 50 ppm [3]: 100%
score from 4 replicates, Megoura viciae [3]: 12

N#Cc1c(C(F)(F)F)nn(-c2c(Cl)cc([S+]([O-])C(F)(F)F)cc2Cl)c1N (centres unmarked) [Compound 219, 5-Amino-4-cyano-1-(2,6-dichloro-4-trifluoromethylsulphinylphenyl)-3-trifluoromethylpyrazole]
mortality at 5 ppm [1]: 100%
mortality at 500 ppm [2]: 100%
mortality at 50 ppm [3]: 100%
score from 4 replicates, Megoura viciae [3]: 12

Cc1nn(-c2c(Cl)cc(C(F)(F)F)cc2Cl)c(N)c1S(=O)(=O)C(Cl)(Cl)Cl [Compound 224, 5-Amino-1-(2,6-dichloro-4-trifluoromethylphenyl)-4-trichloromethanesulphonyl-3-methylpyrazole]
mortality at 5 ppm [1]: 100%
mortality at 50 ppm [3]: 100%
score from 4 replicates, Megoura viciae [3]: 12

CSc1c(C)nn(-c2c(Cl)cc(C(F)(F)F)cc2Cl)c1N [Compound 226, 5-Amino-1-(2,6-dichloro-4-trifluoromethylphenyl)-3-methyl-4-methylthiopyrazole]
mortality at 5 ppm [1]: 100%
mortality at 50 ppm [3]: 100%
score from 4 replicates, Megoura viciae [3]: 12

CCSc1c(C(F)(F)F)nn(-c2c(Cl)cc(C(F)(F)F)cc2Cl)c1N [Compound 228, 5-Amino-1-(2,6-dichloro-4-trifluoromethylphenyl)-4-ethylthio-3-trifluoromethylpyrazole]
mortality at 5 ppm [1]: 100%
mortality at 500 ppm [2]: 100%
mortality at 50 ppm [3]: 100%
score from 4 replicates, Megoura viciae [3]: 12

Reference: patent US6372774B1, “Derivatives of N-phenylpyrazoles” (Rhone-Poulenc Agriculture Ltd., priority 1985, dated 2002)
